Results: EP0187551A1, “Pyrazolo[4,3-c]cinnolin-3-one derivatives, their salts, preparation process, use as medicaments, compositions containing them and intermediate products” (ROUSSEL-UCLAF, priority 1985, dated 1986)
pIC50: −log10 of the molar value.

Assays:
rats [1] = test: Four-plate test (test des 4 plaques), rats; type: in vivo; conditions: 20 mg/Kg per os, 1/2 h after administration
Protocol: (§1) L'appareil (Apelab) et le protocole utilisés ont été décrits par BOISSIER et coll. (European J. Pharmacol. 1968, 4, 145). Les plaques sont reliées à un stimulateur (U. Sachs, Roucaire) qui permet de délivrer des chocs électriques de 120 volts pendant 0,5 s. Les essais sont réalisés sur des lots de 10 souris ou rats 1/2 h après administration per os du composé étudié. Chaque animal est déposé individuellement sur l'appareil. Après 15s d'exploration libre , il est soumis à un choc électrique chaque fois qu'il passe d'une plaque à l'autre, un minimum de 3 secondes étant observé entre deux chocs. Le nombre de chocs délivrés est compté pendant 1 minute. Les résultats obtenus sont comparés à ceux observés chez des animaux témoins par un test de Dunnett.

[2] = molecular target: récepteurs des benzodiazépines; test: Affinity for benzodiazepine receptors (displacement of 3H diazepam, rat cortex membranes); parameters: species or system rats; conditions: concentration inhibiting 50 % of specific 3H diazepam (10^-9M) binding, 30 min at 0°C, read-out: CI 50 (the source's name)
Protocol: 1) Affinité pour les récepteurs des benzodiazépines.
On homogénéise au vingtième (poids/volume) dans le sucrose 0,32M, les cortex prélevés sur des cerveaux de rats mâles pesant 150 g en moyenne.
Après centrifugation de l'homogénat à 1000 g pendant 10 minutes à 0°C, le surnageant est centrifugé à 30 000 g pendant 20 minutes à +4"C. Le culot est mis en suspension dans 20 volumes de tampon Tris Hcl 50mM pH 7,4 et centrifugé à 30 000 g pendant 20 minutes à +4°c. Le nouveau culot obtenu est mis en suspension dans 50 ml de tampon Krebs Tris HCl pH 7,4.
On fait ensuite incuber pendant 30 minutes à 0°C, 2 ml de suspension en présence de ^3H diazepam à la concentration 10-^9M, seul, avec des concentrations croissantes du produit à tester, ou, pour déterminer la fixation non spécifique, avec du diazepam non radioactif à la concentration 10^-6M.
Les suspensions incubées sont filtrées sur Whatman GF/C et les filtres sont lavés par deux fois 5 ml de tampon Krebs Tris HCl pH 7,4 à 0°C.
La radioactivité des filtres est mesurée par scintillation liquide.
L'activité du produit est exprimée en C. I. 50 : concentration inhibant 50 % de la liaison spécifique de ^3H diazepam déterminée graphiquement.

rats [3] = test: Staircase test (test de l'escalier); type: in vivo; conditions: 20 mg/Kg, 1 h after administration, counted for 3 min
Text: L'appareil et le protocole utilisés ont été décrits par THIEBOT et coll. (Psychopharmacologia (Berlin) 1973, 31, 77).
L'expérimentation est réalisée sur des lots de 15 rats naifs. Les animaux sont déposés individuellement dans l'enceinte 1 heure après l'administration du composé étudié. Le nombre de redressements effectués et le nombre de marches montées sont comptés pendant 3 mn.

souris = test: Four-plate test (test des 4 plaques), mice; type: in vivo; conditions: 1/2 h after administration
Protocol: as §1

In the case of `O=c1c2n[nH]c3ccc(Cl)cc3c-2nn1-c1ccccc1` [Exemple 1, 8-chloro-2,5-dihydro-2-phényl 3H-pyrazolo/4,3-c/ cinnolin-3-one], the “augmentation du nombre de chocs délivrés” value (rats [1]) was 41%, the pIC50 [2] was 8.85 and the “diminution du nombre de redressements” value (rats [3]) was 46%. The “nombre de marches montées” value (rats [3]) was “sans modification notable” and the “augmentation du nombre de chocs délivrés” value (souris; 20 mg/Kg per os) was 63%.

With `O=c1c2n[nH]c3ccccc3c-2nn1-c1ccccc1` [Exemple 3, 2,5-dihydro-2-phényl 3H-pyrazolo/4,3-c/ cinnolin-3-one] the “augmentation du nombre de chocs” value (souris; 50 mg/kg per os) was 50%.

`O=c1c2n[nH]c3ccccc3c-2nn1-c1ccccn1` [Exemple 8, Chlorhydrate du 2,5-dihydro-(2-pyridin-2-yl) 3H-pyrazolo /4,3-c/ cinnolin-3-one] was tested, and the “augmentation du nombre de chocs” value (souris; 100 mg/kg per os) was 50%.
